Data from the supplement of paper PMC10733146.

Legend:
Assay in all cases: viability relative to DMSO control (fraction); higher = less drug effect (more viable cells)
Settings in all cases: 48 h
[1] = test system: primary ALL patient cells (S088)
Outline: (§1)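 Viability was quantified by CellTiter-Glo luminescence and related to the median of 16 inner DMSO wells. Before that, primary mononuclear tumour cells, fresh or cryopreserved and Ficoll-isolated from blood or bone marrow or prepared from processed lymph node, were plated at 4 × 10^4 cells per well in 384-well plates containing pre-plated compounds at five concentrations, one well each. Plates were incubated in RPMI-1640 with penicillin/streptomycin, L-glutamine and human serum at 37 °C and 5% CO2 for 48 h.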

[2] = test system: primary AML patient cells (S009)
Outline: as §1

[3] = test system: primary AML patient cells (S089)
Outline: as §1

[4] = test system: primary AML patient cells (S079)
Outline: as §1

[5] = test system: primary MCL patient cells (S053)
Outline: as §1

[6] = test system: primary FL patient cells (S022)
Outline: as §1

[7] = test system: primary AML patient cells (S055)
Outline: as §1

[8] = test system: primary B-PLL patient cells (S016)
Outline: as §1

[9] = test system: primary DLBCL patient cells (S082)
Outline: as §1

[10] = test system: primary AML patient cells (S060)
Outline: as §1

[11] = test system: primary ALL patient cells (S048)
Outline: as §1

[12] = test system: primary AML patient cells (S019)
Outline: as §1

[13] = test system: primary AML patient cells (S091)
Outline: as §1

[14] = test system: primary AML patient cells (S071)
Outline: as §1

[15] = test system: primary AML patient cells (S021)
Outline: as §1

[16] = test system: primary AML patient cells (S017)
Outline: as §1

[17] = test system: primary AML patient cells (S072)
Outline: as §1

[18] = test system: primary AML patient cells (S002)
Outline: as §1

[19] = test system: primary FL patient cells (S087)
Outline: as §1

Nc1ccc2ncnc(NCCc3ccc(Oc4ccccc4)cc3)c2c1 [EVP4593]
viability ([1]; 0.008 µM): 0.151 | viability ([1]; 0.04 µM): 0.168 | viability ([1]; 0.2 µM): 0.147 | viability ([1]; 1 µM): 0.108 | viability ([1]; 5 µM): 0.088 | viability ([2]; 0.008 µM): 0.792 | viability ([2]; 0.04 µM): 0.705 | viability ([2]; 0.2 µM): 0.749 | viability ([2]; 1 µM): 0.636 | viability ([2]; 5 µM): 0.691 | viability ([3]; 0.008 µM): 0.701 | viability ([3]; 0.04 µM): 0.737 | viability ([3]; 0.2 µM): 0.629 | viability ([3]; 1 µM): 0.44 | viability ([3]; 5 µM): 0.215 | viability ([4]; 0.008 µM): 0.818 | viability ([4]; 0.04 µM): 0.84 | viability ([4]; 0.2 µM): 0.806 | viability ([4]; 1 µM): 0.675 | viability ([4]; 5 µM): 0.646 | viability ([5]; 0.008 µM): 0.876 | viability ([5]; 0.04 µM): 0.875 | viability ([5]; 0.2 µM): 0.821 | viability ([5]; 1 µM): 0.672 | viability ([5]; 5 µM): 0.642 | viability ([6]; 0.008 µM): 0.911 | viability ([6]; 0.04 µM): 0.871 | viability ([6]; 0.2 µM): 0.805 | viability ([6]; 1 µM): 0.816 | viability ([6]; 5 µM): 0.825 | viability ([7]; 0.008 µM): 0.913 | viability ([7]; 0.04 µM): 0.853 | viability ([7]; 0.2 µM): 0.791 | viability ([7]; 1 µM): 0.828 | viability ([7]; 5 µM): 0.828 | viability ([8]; 0.008 µM): 0.929 | viability ([8]; 0.04 µM): 0.874 | viability ([8]; 0.2 µM): 0.8 | viability ([8]; 1 µM): 0.716 | viability ([8]; 5 µM): 0.713 | viability ([9]; 0.008 µM): 0.83 | viability ([9]; 0.04 µM): 0.736 | viability ([9]; 0.2 µM): 0.588 | viability ([9]; 1 µM): 0.462 | viability ([9]; 5 µM): 0.452 | viability ([10]; 0.008 µM): 1.01 | viability ([10]; 0.04 µM): 1 | viability ([10]; 0.2 µM): 0.97 | viability ([10]; 1 µM): 0.961 | viability ([10]; 5 µM): 0.966 | viability ([11]; 0.008 µM): 0.776 | viability ([11]; 0.04 µM): 0.919 | viability ([11]; 0.2 µM): 0.88 | viability ([11]; 1 µM): 0.869 | viability ([11]; 5 µM): 0.676 | viability ([12]; 0.008 µM): 0.922 | viability ([12]; 0.04 µM): 0.883 | viability ([12]; 0.2 µM): 0.84 | viability ([12]; 1 µM): 0.82 | viability ([12]; 5 µM): 0.764 | viability ([13]; 0.008 µM): 0.891 | viability ([13]; 0.04 µM): 0.837 | viability ([13]; 0.2 µM): 0.869 | viability ([13]; 1 µM): 0.624 | viability ([13]; 5 µM): 0.532 | viability ([14]; 0.008 µM): 0.768 | viability ([14]; 0.04 µM): 0.684 | viability ([14]; 0.2 µM): 0.351 | viability ([14]; 1 µM): 0.158 | viability ([14]; 5 µM): 0.121 | viability ([15]; 0.008 µM): 0.769 | viability ([15]; 0.04 µM): 0.659 | viability ([15]; 0.2 µM): 0.572 | viability ([15]; 1 µM): 0.437 | viability ([15]; 5 µM): 0.439 | viability ([16]; 0.008 µM): 0.889 | viability ([16]; 0.04 µM): 0.933 | viability ([16]; 0.2 µM): 0.875 | viability ([16]; 1 µM): 0.901 | viability ([16]; 5 µM): 0.795 | viability ([17]; 0.008 µM): 0.844 | viability ([17]; 0.04 µM): 0.823 | viability ([17]; 0.2 µM): 0.772 | viability ([17]; 1 µM): 0.637 | viability ([17]; 5 µM): 0.652 | viability ([18]; 0.008 µM): 0.922 | viability ([18]; 0.04 µM): 0.857 | viability ([18]; 0.2 µM): 0.753 | viability ([18]; 1 µM): 0.668 | viability ([18]; 5 µM): 0.726 | viability ([19]; 0.008 µM): 0.933 | viability ([19]; 0.04 µM): 0.915 | viability ([19]; 0.2 µM): 0.862 | viability ([19]; 1 µM): 0.811 | viability ([19]; 5 µM): 0.79

Nc1cccc2c1CN(C1CCC(=O)NC1=O)C2=O (stereo not given) [Lenalidomide]
viability ([1]; 0.008 µM): 1.07 | viability ([1]; 0.04 µM): 1.05 | viability ([1]; 0.2 µM): 0.976 | viability ([1]; 1 µM): 0.933 | viability ([1]; 5 µM): 0.904 | viability ([2]; 0.008 µM): 0.927 | viability ([2]; 0.04 µM): 0.871 | viability ([2]; 0.2 µM): 0.817 | viability ([2]; 1 µM): 0.723 | viability ([2]; 5 µM): 0.786 | viability ([3]; 0.008 µM): 0.916 | viability ([3]; 0.04 µM): 0.727 | viability ([3]; 0.2 µM): 0.724 | viability ([3]; 1 µM): 0.559 | viability ([3]; 5 µM): 0.737 | viability ([4]; 0.008 µM): 1.02 | viability ([4]; 0.04 µM): 1.02 | viability ([4]; 0.2 µM): 1.08 | viability ([4]; 1 µM): 1.08 | viability ([4]; 5 µM): 1.08 | viability ([5]; 0.008 µM): 1.13 | viability ([5]; 0.04 µM): 0.965 | viability ([5]; 0.2 µM): 0.862 | viability ([5]; 1 µM): 0.817 | viability ([5]; 5 µM): 0.688 | viability ([6]; 0.008 µM): 0.956 | viability ([6]; 0.04 µM): 0.99 | viability ([6]; 0.2 µM): 0.97 | viability ([6]; 1 µM): 1 | viability ([6]; 5 µM): 1.05 | viability ([7]; 0.008 µM): 1.01 | viability ([7]; 0.04 µM): 0.945 | viability ([7]; 0.2 µM): 0.916 | viability ([7]; 1 µM): 0.943 | viability ([7]; 5 µM): 0.928 | viability ([8]; 0.008 µM): 1.1 | viability ([8]; 0.04 µM): 1.05 | viability ([8]; 0.2 µM): 0.883 | viability ([8]; 1 µM): 0.819 | viability ([8]; 5 µM): 0.719 | viability ([9]; 0.008 µM): 1.1 | viability ([9]; 0.04 µM): 1.07 | viability ([9]; 0.2 µM): 1.08 | viability ([9]; 1 µM): 1.14 | viability ([9]; 5 µM): 1.1 | viability ([10]; 0.008 µM): 1.02 | viability ([10]; 0.04 µM): 0.973 | viability ([10]; 0.2 µM): 0.992 | viability ([10]; 1 µM): 1 | viability ([10]; 5 µM): 1.01 | viability ([11]; 0.008 µM): 0.895 | viability ([11]; 0.04 µM): 0.751 | viability ([11]; 0.2 µM): 0.609 | viability ([11]; 1 µM): 0.548 | viability ([11]; 5 µM): 0.488 | viability ([12]; 0.008 µM): 1.07 | viability ([12]; 0.04 µM): 0.828 | viability ([12]; 0.2 µM): 0.761 | viability ([12]; 1 µM): 0.863 | viability ([12]; 5 µM): 0.71 | viability ([13]; 0.008 µM): 1.09 | viability ([13]; 0.04 µM): 1.1 | viability ([13]; 0.2 µM): 1.11 | viability ([13]; 1 µM): 0.943 | viability ([13]; 5 µM): 1.1 | viability ([14]; 0.008 µM): 0.864 | viability ([14]; 0.04 µM): 0.563 | viability ([14]; 0.2 µM): 0.386 | viability ([14]; 1 µM): 0.321 | viability ([14]; 5 µM): 0.295 | viability ([15]; 0.008 µM): 0.897 | viability ([15]; 0.04 µM): 0.688 | viability ([15]; 0.2 µM): 0.617 | viability ([15]; 1 µM): 0.614 | viability ([15]; 5 µM): 0.556 | viability ([16]; 0.008 µM): 1.03 | viability ([16]; 0.04 µM): 0.976 | viability ([16]; 0.2 µM): 0.982 | viability ([16]; 1 µM): 0.963 | viability ([16]; 5 µM): 0.986 | viability ([17]; 0.008 µM): 1.12 | viability ([17]; 0.04 µM): 1.14 | viability ([17]; 0.2 µM): 1.1 | viability ([17]; 1 µM): 1.13 | viability ([17]; 5 µM): 1.15 | viability ([18]; 0.008 µM): 0.904 | viability ([18]; 0.04 µM): 0.949 | viability ([18]; 0.2 µM): 0.757 | viability ([18]; 1 µM): 0.698 | viability ([18]; 5 µM): 0.713 | viability ([19]; 0.008 µM): 1 | viability ([19]; 0.04 µM): 0.963 | viability ([19]; 0.2 µM): 0.926 | viability ([19]; 1 µM): 0.956 | viability ([19]; 5 µM): 0.87
